The values below come from US10246498B2, “Genetically encoded histone reporter allele constructs” (THE JOHNS HOPKINS UNIVERSITY, priority 2014, dated 2019).

Test [1] deals with Klf10. Briefly: Real-time PCR of Kmt2d target gene Klf10 in spleen cells. The class given is in vivo, mouse. To be noted: spleen cells of Kmt2d+/βGeo mice. The protocol:
Real-time PCR was performed using Kmt2d-specific probes for exons 20 and 52 (Mm_02600438 and Mm_01717664, respectively) from TaqMan® Gene Expression Assays (Life Technologies, Carlsbad, Calif.). For a comparison of transfection efficiencies for indicator constructs in transient transfection studies, real-time PCR was performed using SYBR Green Real-Time PCR Master Mix (Life Technologies, Carlsbad, Calif.) and primers IND-F-([…]; SEQ ID NO: 5) and IND-R-([…]; SEQ ID NO: 6) that are specific for the H3K4 methylation indicator. For expression analysis for KMT2D target gene KLF10, real-time PCR was performed using Klf10-specific expression assay (Mm00449812_m1) from TaqMan® Gene Expression Assays (Life Technologies, Carlsbad, Calif.).

The test system of test [2] is DCX positive cells in the GCL. Briefly: Doublecortin (DCX) expression in the GCL (neurogenesis) after oral AR-42. The class given is in vivo, mouse. From the text: Kmt2d^+/βGeo mice, also named Mll2Gt^(RRt024)Byg, were acquired from Bay Genomics (University of California). All experimental mice were on a mixed C57BL/6J and 129/SvEv background. Expected Mendelian ratios were observed when heterozygous animals were bred to wild-type. In heterozygous crosses, however, there was uniform embryonic lethality of homozygotes by ED12, the earliest developmental stage assayed. For treatment with AR-42, mice were orally gavaged daily with drug (Selleck Chemicals, Houston, Tex.) solubilized in vehicle (0.5% methylcellulose, 0.1% Tween-80, water) or with vehicle alone. Drug delivery information was kindly provided by Drs. Chen and Kulp from Ohio State University (Huang et al. (2011) Mol. Pharmacol. 79:197-20619). Drug was administered for 14 days and mice were sacrificed on day 15. Morris water maze testing was initiated at day 7 and a dose of 10 mg/kg/day was used for these studies. For quantification of DCX positive cells, doses of 0, 5, 10 and 25 mg/kg/day were used. Genotyping was performed using primers B-GeoF-([…]; SEQ ID NO: 1) and B-GeoR-([…]; SEQ ID NO: 2) that are specific for the targeted allele and TcrdF-([…]; SEQ ID NO: 3) and TcrdR-([…]; SEQ ID NO: 4) that control for sufficient DNA concentration. Real-time PCR using the same primers allows discrimination between the heterozygous and homozygous state for the targeted allele. Maxillary protrusion was evaluated by ten investigators blinded to genotype and they were asked to rate maxillary protrusion on radiographs as either large (2) or small (1). […] All experiments were performed using mouse protocols approved by the Animal Care and Committee of Johns Hopkins University School of Medicine. The mouse protocols used for this study are in accordance with the guidelines used by the NIH for mouse care and handling.
Every 6th brain section was selected and then blocked with 5% Bovine Serum Albumin (BSA) at room temperature followed by incubation with primary antibodies overnight at 4° C. Secondary antibodies were then applied for 1 hour at room temperature, after which sections were mounted onto microscope slides with Vectamount with DAPI (Vector Laboratories, Burlingame, Calif.). Primary antibodies included Doublecortin (DCX) (SC-8066, Santa Cruz Biotechnology, Dallas, Tex., 1:200 goat), trimethylated H3K4 (9727L, Cell Signaling Technology, Beverly, Mass., 1:500 rabbit), and Kmt2d H-300 (SC-292359, Santa Cruz Biotechnology, Dallas, Tex., 1:500 rabbit). Non-specific binding was not observed when sections were sequentially exposed to serum (or IgG when appropriate) from the same species as the primary antibody for each experiment (i.e. rabbit for KMT2D and H3K4me3 and goat for doublecortin), followed by the secondary antibody used for KMT2D and H3K4me3 (anti-rabbit) or doublecortin (anti-goat, FIG. 29).
The area of both the GCL and DCX+ cells was measured using the NS elements 2.0 software (Nikon, Tokyo, JPN). Normalized DCX area was calculated by measuring the DCX+ area of the GCL and setting the baseline (Kmt2d^+/+) fraction to 1. A Student t-test with significance value set at P<0.05 was used for comparison of DCX+ area referenced to GCL area between genotypes and treatment arms.

SMILES strings stand for the structures. “Also recorded” adds a separate entry of the source.

For `CC(C)[C@H](C(=O)Nc1ccc(C(=O)NO)cc1)c1ccccc1` [AR-42], in test [1], the Klf10 expression result is on record as “normalization of expression of Klf10; also recorded: normalized”. For the same molecule, the DCX expression result in test [2] (10 mg/kg/day, older (5-6 months) Kmt2d+/βGeo mice) was “improved”; in test [2] (25 mg/kg/day, Kmt2d+/+ animals), “reduced DCX expression”; in test [2] (25 mg/kg/day, Kmt2d+/βGeo mice), “did not improve DCX expression”; in test [2] (5 and 10 mg/kg/day, Kmt2d+/+ or Kmt2d+/βGeo, both age groups) it was “preservation or restoration of DCX expression”. Moreover, in test [2] (25 mg/kg/day, young (1-2 month) and old (5-6 month) mice, both genotypes), the “DCX expression in the GCL” value is “decreased DCX expression”. Besides, the “neurogenesis (normalized DCX expression)” value in test [2] (5 and 10 mg/kg/day, 1-2 month old Kmt2d+/βGeo mice) is recorded as “dose-dependent increase in neurogenesis”.
